Measured values reported in PMC10783014, “Structure-based virtual screening and in vitro validation of inhibitors of cyclic dinucleotide phosphodiesterases ENPP1 and CdnP” (Microbiology Spectrum, 2023).
Converted amounts (≈) assume the structure as drawn. “And” between values parts separate entries of the source, which are not always exact repeats. Equal values may be shown once. Read-outs that look alike come from different tables or passages of the source.

Assays:
[1] = molecular target: T1, M.tb CdnP (Mycobacterium tuberculosis, UniProt P71615); assay: biochemical
[2] = molecular target: T2, human ENPP1 (Homo sapiens, UniProt P22413); assay: Luminescence-based AMP-Glo ENPP1 enzyme inhibition assay with 2′,3′-cGAMP substrate; format: biochemical; conditions: 2′,3′-cGAMP 300 µM, ENPP1 5 µM
T2 construct: purchased Origene
T2 sequence (P22413 1-925): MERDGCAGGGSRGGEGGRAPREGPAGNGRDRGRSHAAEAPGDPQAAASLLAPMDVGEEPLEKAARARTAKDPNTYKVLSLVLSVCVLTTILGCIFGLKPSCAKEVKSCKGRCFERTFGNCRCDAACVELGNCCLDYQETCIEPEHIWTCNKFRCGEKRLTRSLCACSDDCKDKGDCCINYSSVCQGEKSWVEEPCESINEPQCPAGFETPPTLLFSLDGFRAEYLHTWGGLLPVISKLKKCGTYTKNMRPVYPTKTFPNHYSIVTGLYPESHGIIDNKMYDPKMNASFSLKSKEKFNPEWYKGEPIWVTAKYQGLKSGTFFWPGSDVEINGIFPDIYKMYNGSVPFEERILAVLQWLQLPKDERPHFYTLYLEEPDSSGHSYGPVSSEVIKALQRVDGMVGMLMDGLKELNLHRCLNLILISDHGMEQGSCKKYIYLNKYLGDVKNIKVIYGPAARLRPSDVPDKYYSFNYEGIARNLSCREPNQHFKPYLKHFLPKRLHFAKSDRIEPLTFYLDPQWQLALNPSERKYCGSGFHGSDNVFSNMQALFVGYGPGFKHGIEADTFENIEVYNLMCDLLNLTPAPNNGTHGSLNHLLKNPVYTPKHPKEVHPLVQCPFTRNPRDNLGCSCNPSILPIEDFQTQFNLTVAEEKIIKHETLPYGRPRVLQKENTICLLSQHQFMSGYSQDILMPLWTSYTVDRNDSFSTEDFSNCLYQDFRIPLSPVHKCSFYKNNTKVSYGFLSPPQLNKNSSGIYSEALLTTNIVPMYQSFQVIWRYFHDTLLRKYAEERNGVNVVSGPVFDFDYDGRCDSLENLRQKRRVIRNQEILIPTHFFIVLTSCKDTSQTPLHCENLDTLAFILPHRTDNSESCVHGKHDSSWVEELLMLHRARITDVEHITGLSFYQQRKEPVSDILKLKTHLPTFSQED

[3] = tested on: Vero cells; assay: Vero cell cytotoxicity, resazurin dye reduction assay; format: cell-based, African green monkey
[4] = tested on: RAW-Blue IRF3 ISG reporter macrophages; assay: IRF3 induction in RAW-Blue IRF3-SEAP reporter macrophages after 2′,3′-cGAMP transfection (QUANTI-Blue); format: cell-based, mouse; conditions: 165 µM E-3 plus 1 nM 2′,3′-cGAMP, 24 h
[5] = tested on: primary human monocyte-derived macrophages (hMDMs); assay: IFN-β release by human monocyte-derived macrophages after 2′,3′-cGAMP transfection (ELISA); format: cell-based
[6] = molecular target: T1, M.tb CdnP; format: biochemical
[7] = Chlorocebus sabaeus, Vero, 48 h, Vero cell growth inhibition, 48 h then resazurin overnight, read-out: IC50 Vero cells
[8] = Vero cell growth inhibition, 48 h then resazurin overnight, read-out: IC50 Vero cells
[9] = Vero cell growth inhibition, 48 h then resazurin overnight
[10] = 1 nM 2′,3′-cGAMP in the presence of 165 µM E-3, 24 h

T1 sequence (P71615 whole entry, looked up): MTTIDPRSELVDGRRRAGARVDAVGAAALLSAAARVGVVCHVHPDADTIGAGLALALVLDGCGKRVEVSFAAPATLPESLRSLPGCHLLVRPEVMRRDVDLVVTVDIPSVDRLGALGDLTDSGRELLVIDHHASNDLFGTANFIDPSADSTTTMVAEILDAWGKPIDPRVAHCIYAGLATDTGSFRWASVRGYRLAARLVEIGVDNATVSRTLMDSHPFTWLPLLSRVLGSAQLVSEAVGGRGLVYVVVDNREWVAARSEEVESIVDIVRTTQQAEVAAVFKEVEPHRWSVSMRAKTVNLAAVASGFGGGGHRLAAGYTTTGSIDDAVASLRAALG

Compound	IC50 ([1]; IC50 CdnP)	IC50 [2]	IC50 [3, 7] [mg/L]	IC50 [3, 8] [µM]	other results
O=S(=O)(NN=c1nc(N2CCCC2)[nH]c(N2CCCC2)n1)c1ccccc1 [Inhibitor C-33]	18.8 µM and 18.7 µM	60.5 µM and 60.3 µM	> 100	> 257	
Cc1c2cc[n+](C)cc2c(COC2OC(CO)C(O)C2O)c2c3ccccc3n(C)c12 (stereo not drawn) [Inhibitor C-29]	14.2 µM	19.4 µM	> 100	> 237	
Cc1ccc(S(=O)(=O)NN=c2nc(N3CCCC3)[nH]c(N3CCCC3)n2)cc1 [Inhibitor C-34]	13.1 µM	63.3 µM and 63.4 µM	> 100	> 247	
c1cc2c(cc1C(N1CCNCC1)N1CCNCC1)OCO2 [Inhibitor E-12]		41.1 µM		> 329	IC50 ENPP1 [2]: 12.5 mg/L (≈ 41.1 µM); IC50 Vero cells [3, 9]: > 100 mg/L
O=C(NNc1nc(NC2CCCCC2)nc(NC2CCCCC2)n1)c1ccccc1 [Inhibitor E-60]		9.8 µM and 9.77 µM	> 100	> 245	
CC(OCCCCOC(C)n1cnc2c(=O)nc[nH]c21)n1cnc2c(=O)nc[nH]c21 (stereo not drawn) [Inhibitor C-13]	9.66 µM and 9.65 µM	> 241 µM	> 100	> 241	
O=C(Nc1n[nH]c(NC(=O)c2ccccc2)n1)c1ccccc1 [Inhibitor E-27]		16.3 µM	> 100	> 326	
Cc1ccc(Nc2nc(N)nc(Nc3ccc4ccccc4c3)n2)cc1 [Inhibitor E-3]		26.4 µM and 29.2 µM	> 100	> 264	IRF induction (SEAP signal) [4]: 1.1 A655 units; fold increased IRF signal versus cGAMP alone [4]: 2.75 fold; IFN-β release [5, 10]: 95 pg/mL; fold increase in IFN-β release versus cGAMP alone [5, 10]: 2.1 fold; IFN-β release ([5]; 165 µM E-3 alone, no cGAMP): 10 pg/mL
c-di-AMP					Km [6]: 51.4 µM; Vmax for CdnP [6]: 0.5664 µM/min
NC1CC2NC3CCCCC3NC2CC1N (stereo not drawn) [Inhibitor E-37]		44.6 µM			IC50 ([3]; Chlorocebus sabaeus, Vero, 48 h, read-out: IC50 Vero cells, Vero cell growth inhibition, 48 h then resazurin overnight): > 100 mg/L; IC50 ([3]; read-out: IC50 Vero cells, Vero cell growth inhibition, 48 h then resazurin overnight): > 446 µM
NNc1nc(N2CCCCC2)c2[nH]cnc2n1 [Inhibitor C-76]		> 429 µM		> 429	IC50 CdnP [1]: 42.9 (10) µg/mL; IC50 ([1]; read-out: IC50 CdnP): 42.9 µM; IC50 ENPP1 [2]: > 100 mg/L; IC50 Vero cells [3, 9]: > 100 mg/L
O=C(C[N+]12CN3CN(CN(C3)C1)C2)c1ccc2ccccc2c1 [Inhibitor C-5]		> 257 µM		154	IC50 CdnP [1]: 28.8 (11.2) µg/mL; IC50 ([1]; read-out: IC50 CdnP): 28.8 µM; IC50 ENPP1 [2]: > 100 mg/L; IC50 Vero cells [3, 9]: 60 mg/L
